Measurements taken from the supplement of paper PMC11208160.

Test: recombinant UMI read abundance after kanamycin selection (control-corrected) (log10(CPM+1)); higher = more efficient recombination; extreme values may be limits of the assay; sequences stand for … in AGTGCAGAGAAAATCGGCCAGTTTTCTCTGCCTGCAGTCCGCATGCCGTGGGACCCCTTGGGTTCTAACCTGTTGCCTAGATTTATGCAGCGGACTGCCTTTCTCCCAAAGTGATAAACCGG…AGGTTGGTTTCACT; site = the 11-nt donor
Outline: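 Sequenced counts of recombinant UMIs were turned into CPM, averaged across replicates and scaled with control-derived factors. The reported figure is log10(CPM+1). Those UMIs, each 12 nt long, tagged donor and donor-binding-loop pairs on a plasmid with a promoterless kanamycin gene, screened as a pool in Escherichia coli with IPTG (0.07 mM) plus kanamycin or without selection.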
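Further: IS621 bridge recombinase in Escherichia coli cells against a fixed T5 target plasmid.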

| Sequence | recombinant UMI read abundance (log10) |
| --- | --- |
| TAGTTGACATGGACCGGTTTTCCCGGTAATCCGTATTTGCT (site TAGTTGACTAG) | 2.13 |
| TAGTTGACATGGACCGGTTTTCCCGGTAATCCGTATTTGCT (site TATTTGACTAG) | 0.0101 |
| TATAAGACATGGACCGGTTTTCCCGGTAATCCGTATTTGAC (site TATAAGACTGT) | 2.01 |
| TATAATTCATGGACCGGTTTTCCCGGTAATCCGTATTTGAC (site TATAATTCTGT) | 0.209 |
| TATAGCCCATGGACCGGTTTTCCCGGTAATCCGTATTTGTA (site TATAGCCCTTA) | 0.181 |
| TATAGCGCATGGACCGGTTTTCCCGGTAATCCGTATTTGTG (site TATAGCGCTCA) | 0.205 |
| TATAGGACATGGACCGGTTTTCCCGGTAATCCGTATTTGAT (site TATAGGACTAT) | 1.11 |
| TATATGGCATGGACCGGTTTTCCCGGTAATCCGTATTTGTG (site TATATGGCTCA) | 0.368 |
| TATATGGCATGGACCGGTTTTCCCGGTAATCCGTATTTGTG (site TATCTGGCTCA) | 0.00271 |
| TATATGGCATGGACCGGTTTTCCCGGTAATCCGTATTTGTG (site TATGTGGCTCA) | 0.00727 |
| TATATGGCATGGACCGGTTTTCCCGGTAATCCGTATTTGTG (site TATTTGGCTCA) | 0.0941 |
| TATATTGCATGGACCGGTTTTCCCGGTAATCCGTATTTGTC (site TATATTGCTGA) | 0 |
| TATCCCGCATGGACCGGTTTTCCCGGTAATCCGTATTTGCC (site TATCCCGCTGG) | 1.79 |
| TATCCTGCATGGACCGGTTTTCCCGGTAATCCGTATTTGAC (site TATCCTGCTGT) | 0 |
| TATCGAACATGGACCGGTTTTCCCGGTAATCCGTATTTGTT (site TATCGAACTAA) | 0.00888 |
| TATCTCACATGGACCGGTTTTCCCGGTAATCCGTATTTGAC (site TATCTCACTGT) | 2.11 |
| TATCTTTCATGGACCGGTTTTCCCGGTAATCCGTATTTGAT (site TATCTTTCTAT) | 0 |
| TATGCCACATGGACCGGTTTTCCCGGTAATCCGTATTTGTA (site TATGCCACTTA) | 0.598 |
| TATGGCCCATGGACCGGTTTTCCCGGTAATCCGTATTTGAT (site TATGGCCCTAT) | 0.0149 |
| TATGTAGCATGGACCGGTTTTCCCGGTAATCCGTATTTGTT (site TATGTAGCTAA) | 1.23 |
| TATTCAACATGGACCGGTTTTCCCGGTAATCCGTATTTGCA (site GGGAACGCTAA) | 0.00333 |
| TATTCAACATGGACCGGTTTTCCCGGTAATCCGTATTTGTG (site TATTCAACTCA) | 0.011 |
| TATTGAGCATGGACCGGTTTTCCCGGTAATCCGTATTTGGG (site TAATGAGCTCC) | 0.0665 |
| TATTGAGCATGGACCGGTTTTCCCGGTAATCCGTATTTGGG (site TACTGAGCTCC) | 0.0155 |
| TATTGAGCATGGACCGGTTTTCCCGGTAATCCGTATTTGGG (site TAGTGAGCTCC) | 0.0187 |
| TATTGAGCATGGACCGGTTTTCCCGGTAATCCGTATTTGGG (site TATTGAGCTCC) | 0 |

| Sequence | recombinant UMI read abundance (log10) |
| --- | --- |
| TATTGATCATGGACCGGTTTTCCCGGTAATCCGTATTTGTG (site TATTGATCTCA) | 0.805 |
| TATTGTTCATGGACCGGTTTTCCCGGTAATCCGTATTTGTG (site TATTGTTCTCA) | 0.00773 |
| TATTTGACATGGACCGGTTTTCCCGGTAATCCGTATTTGCT (site TAATTGACTAG) | 1.9 |
| TATTTGACATGGACCGGTTTTCCCGGTAATCCGTATTTGCT (site TACTTGACTAG) | 0.882 |
| TATTTGACATGGACCGGTTTTCCCGGTAATCCGTATTTGCT (site TAGTTGACTAG) | 0.852 |
| TATTTGACATGGACCGGTTTTCCCGGTAATCCGTATTTGCT (site TATTTGACTAG) | 2.54 |
| TATTTGACATGGACCGGTTTTCCCGGTAATCCGTATTTGTG (site TATTTGACTCA) | 0.0179 |
| TATTTGACATGGACCGGTTTTCCCGGTAATCCGTATTTGTG (site TATTTGCCTCA) | 0.00551 |
| TATTTGACATGGACCGGTTTTCCCGGTAATCCGTATTTGTG (site TATTTGGCTCA) | 0.00542 |
| TATTTGACATGGACCGGTTTTCCCGGTAATCCGTATTTGTG (site TATTTGTCTCA) | 0.0134 |
| TCAAACTCATGGACCGGTTTTCCCGGTAATCCGTATTTGCA (site TCAAACTCTTG) | 1.55 |
| TCAAACTCATGGACCGGTTTTCCCGGTAATCCGTATTTGCA (site TCACACTCTTG) | 1.25 |
| TCAAACTCATGGACCGGTTTTCCCGGTAATCCGTATTTGCA (site TCAGACTCTTG) | 0 |
| TCAAACTCATGGACCGGTTTTCCCGGTAATCCGTATTTGCA (site TCATACTCTTG) | 1.92 |
| TCAAAGCCATGGACCGGTTTTCCCGGTAATCCGTATTTGAT (site TCAAAGCCTAT) | 0.324 |
| TCAACCCCATGGACCGGTTTTCCCGGTAATCCGTATTTGTG (site TCAACCCCTCA) | 0.00442 |
| TCAAGTTCATGGACCGGTTTTCCCGGTAATCCGTATTTGTC (site TCAAGTTCTGA) | 2 |
| TCAATCTCATGGACCGGTTTTCCCGGTAATCCGTATTTGGT (site TCAATCTCTAC) | 1.11 |
| TCAATTGCATGGACCGGTTTTCCCGGTAATCCGTATTTGCG (site TCAATTGCTCG) | 1.52 |
| TCACCGCCATGGACCGGTTTTCCCGGTAATCCGTATTTGGG (site TCACCGCCTCC) | 0.0301 |
| TCACCTTCATGGACCGGTTTTCCCGGTAATCCGTATTTGTT (site TCACCTTCTAA) | 0.00377 |
| TCACGACCATGGACCGGTTTTCCCGGTAATCCGTATTTGCT (site TCACGACCTAG) | 0 |
| TCACGAGCATGGACCGGTTTTCCCGGTAATCCGTATTTGCC (site TCACGAGCTGG) | 0.952 |
| TCACGCGCATGGACCGGTTTTCCCGGTAATCCGTATTTGAA (site TCACGCGCTTT) | 1.05 |
| TCAGAATCATGGACCGGTTTTCCCGGTAATCCGTATTTGCG (site TCAGAATCTCG) | 2.57 |
| TCAGATACATGGACCGGTTTTCCCGGTAATCCGTATTTGCG (site TCAGAAACTCG) | 0 |
